“Also recorded” adds a separate entry of the source. Read-outs that look alike come from different tables or passages of the source.
Tests used:
[1] = in humans; cited from earlier work
[2] = system: patients with mild-to-moderate AD; assay: Example D: twelve-item neuropsychiatric inventory (NPI-12); type: in vivo, human
Method: Exploratory PD effects of HTL0018318 were examined via both behavioural (Cogstate neuropsychological test battery [NTB]) tests of cognitive function and electrophysiological (electroencephalogram [EEG] and evoked response potentials [ERPs]) biomarkers. Further details of each biomarker/test and outcome variables are provided below. Twelve-item neuropsychiatric inventory (NPI-12) scores were used to evaluate neuropsychiatric symptoms.
Statistical evaluation was performed using Statistical analysis software (SAS®, SAS Institute, Cary, NC). Changes from baseline in vital signs were analysed using a mixed model for repeated measures with fixed effects for baseline, treatment, time-point and treatment by time-point interaction. The exploratory PD endpoints were analysed using an analysis of covariance with change from baseline as the dependent variable, and baseline and treatment as covariates. The least square means (LSM) for each dose (and difference from placebo) are presented with the 90% CI, P-value, and ES. ES was calculated as the LSM difference from placebo divided by the pooled standard deviation. PD data were considered clinically meaningful when P-values were <0.10 and ESs were >0.4 (ie, moderate to large ES).

[3] = Example D: HTL0018318 plasma pharmacokinetics; type: in vivo, human
Method: Selected plasma pharmacokinetics (PK) parameters for HTL0018318 were estimated during the period over which PD assessments were made. Details of assessment times for all endpoints are described below.
Pharmacokinetics (PK) were evaluated via blood samples, for determination of HTL0018318 concentrations in plasma. Blood samples were collected during clinic visits before morning dose administration and 1, 2, and 4 hours after dose administration, on Day 1, Day 6, Day 11, Day 16, Day 28, and Day 35 (follow-up visit). Bioanalysis used a fully validated method and all samples were analysed within the established period of storage stability. Validated Phoenix® WinNonlin® Version 6.4 was used to derive PK parameters.
All safety analyses used the safety set (SAF; randomised dose). The SAF (randomised dose) included all randomised patients who received at least one dose of the study drug; treatment group assignment was based on the initial randomised dose. All efficacy analyses were considered exploratory and used the full analysis set (FAS). The FAS included all randomised patients with at least one post-baseline efficacy measurement; treatment group assignment was based on the initial randomised dose. All summaries and analyses of PK data used the pharmacokinetic set (PKS). The PKS included all randomised patients with valid PK assessments; treatment group assignment was based on actual dose received.

CCOC(=O)N1C2CCC1CC(N1CCC3(CC1)CNC(=O)C3)C2 (stereo not drawn) [HTL0018318, ethyl 3-(3-oxo-2,8-diazaspiro[4.5]dec-8-yl)-8-azabicyclo[3.2.1]octane-8-carboxylate]
Tmax [1]: 1 to 2 h
half-life [1]: approximately 16 hours
NPI-12 total score, ES ([2]; 5 mg): -0.73
NPI-12 total score, LSM difference from placebo ([2]; 5 mg): −1.79
NPI-12 total score, ES ([2]; 15 mg): −0.54
NPI-12 total score, ES ([2]; 25 mg): −0.53
Ctrough, arithmetic mean ± SD ([3]; 5 mg, visit day 6): 14.2 ± 12.1 ng/mL
Ctrough, arithmetic mean ± SD ([3]; 5 mg, visit day 11): 13.7 ± 10.3 ng/mL
Ctrough, arithmetic mean ± SD ([3]; 10 mg, visit day 6): 7.55 ± 4.72 ng/mL
Ctrough, mean ([3]; 10 mg, visit day 11, n = 2): 5.47 ng/mL
Ctrough, arithmetic mean ± SD ([3]; 15 mg, visit day 6): 19.0 ± 25.7 ng/mL
Ctrough, arithmetic mean ± SD ([3]; 15 mg, visit day 11): 27.9 ± 40.7 ng/mL
Cmax, arithmetic mean ± SD ([3]; 25 mg, visit day 28): 223 ± 134 ng/mL
dose-exposure proportionality (Cmax, AUC0-4 h) ([3]; 5-25 mg): Dose-exposure proportionality was confirmed; also recorded: increased proportionally across 5-25 mg doses
steady-state achieved with daily dosing ([3]; any given dose level): 5 days
AUC(0-t) ([3]; human, plasma, 5 mg, visit day 1, read-out: AUC0-4 h, arithmetic mean ± SD): 113 ± 57.6 ng·h/mL
Cmax ([3]; human, plasma, 5 mg, visit day 1, read-out: Cmax, arithmetic mean ± SD): 40.3 ± 24.4 ng/mL
AUC(0-t) ([3]; human, plasma, 5 mg, visit day 6, read-out: AUC0-4 h, arithmetic mean ± SD): 146 ± 53.1 ng·h/mL
Cmax ([3]; human, plasma, 5 mg, visit day 6, read-out: Cmax, arithmetic mean ± SD): 50.5 ± 15.6 ng/mL
AUC(0-t) ([3]; human, plasma, 5 mg, visit day 11, read-out: AUC0-4 h, arithmetic mean ± SD): 149 ± 70.6 ng·h/mL
Cmax ([3]; human, plasma, 5 mg, visit day 11, read-out: Cmax, arithmetic mean ± SD): 48.3 ± 19.6 ng/mL
AUC(0-t) ([3]; human, plasma, 5 mg, visit day 16, read-out: AUC0-4 h, arithmetic mean ± SD): 132 ± 56.2 ng·h/mL
Cmax ([3]; human, plasma, 5 mg, visit day 16, read-out: Cmax, arithmetic mean ± SD): 46.4 ± 18.9 ng/mL
AUC(0-t) ([3]; human, plasma, 5 mg, visit day 28, read-out: AUC0-4 h, arithmetic mean ± SD): 144 ng·h/mL
Cmax ([3]; human, plasma, 5 mg, visit day 28, read-out: Cmax, arithmetic mean ± SD): 51.8 ng/mL
AUC(0-t) ([3]; human, plasma, 10 mg, visit day 6, read-out: AUC0-4 h, arithmetic mean ± SD): 244 ± 88 ng·h/mL
Cmax ([3]; human, plasma, 10 mg, visit day 6, read-out: Cmax, arithmetic mean ± SD): 82.4 ± 31.6 ng/mL
AUC(0-t) ([3]; human, plasma, 10 mg, visit day 11, n = 2, read-out: AUC0-4 h, mean [minimum, maximum]): 231 ng·h/mL
Cmax ([3]; human, plasma, 10 mg, visit day 11, read-out: Cmax, arithmetic mean ± SD): 69.7 ± 33.6 ng/mL
AUC(0-t) ([3]; human, plasma, 10 mg, visit day 16, n = 1, read-out: AUC0-4 h): 302 ng·h/mL
Cmax ([3]; human, plasma, 10 mg, visit day 16, n = 1, read-out: Cmax): 87.5 ng/mL
AUC(0-t) ([3]; human, plasma, 10 mg, visit day 28, n = 1, read-out: AUC0-4 h): 222 ng·h/mL
Cmax ([3]; human, plasma, 10 mg, visit day 28, n = 1, read-out: Cmax): 89 ng/mL
AUC(0-t) ([3]; human, plasma, 15 mg, visit day 6, read-out: AUC0-4 h, arithmetic mean ± SD): 315 ± 163 ng·h/mL
Cmax ([3]; human, plasma, 15 mg, visit day 6, read-out: Cmax, arithmetic mean ± SD): 106 ± 54 ng/mL
AUC(0-t) ([3]; human, plasma, 15 mg, visit day 11, read-out: AUC0-4 h, arithmetic mean ± SD): 379 ± 77.5 ng·h/mL
Cmax ([3]; human, plasma, 15 mg, visit day 11, read-out: Cmax, arithmetic mean ± SD): 126 ± 29.3 ng/mL
AUC(0-t) ([3]; human, plasma, 15 mg, visit day 16, read-out: AUC0-4 h, arithmetic mean ± SD): 422 ± 94.5 ng·h/mL
Cmax ([3]; human, plasma, 15 mg, visit day 16, read-out: Cmax, arithmetic mean ± SD): 136 ± 31.4 ng/mL
AUC(0-t) ([3]; human, plasma, 15 mg, visit day 28, read-out: AUC0-4 h, arithmetic mean ± SD): 368 ng·h/mL
Cmax ([3]; human, plasma, 15 mg, visit day 28, read-out: Cmax, arithmetic mean ± SD): 123 ng/mL
AUC(0-t) ([3]; human, plasma, 25 mg, visit day 11, read-out: AUC0-4 h, arithmetic mean ± SD): 650 ± 302 ng·h/mL
Cmax ([3]; human, plasma, 25 mg, visit day 11, read-out: Cmax, arithmetic mean ± SD): 222 ± 102 ng/mL
AUC(0-t) ([3]; human, plasma, 25 mg, visit day 16, read-out: AUC0-4 h, arithmetic mean ± SD): 728 ± 359 ng·h/mL
Cmax ([3]; human, plasma, 25 mg, visit day 16, read-out: Cmax, arithmetic mean ± SD): 243 ± 108 ng/mL
AUC(0-t) ([3]; human, plasma, 25 mg, visit day 28, read-out: AUC0-4 h, arithmetic mean ± SD): 668 ng·h/mL
Cmax ([3]; human, plasma, 25 mg, visit day 28, read-out: Cmax, arithmetic mean ± SD): 224 ng/mL
concentration at 16 day ([3]; human, plasma, 5 mg, visit day 16, read-out: Ctrough, arithmetic mean ± SD): 14.1 ± 10.8 ng/mL
concentration at 28 day ([3]; human, plasma, 5 mg, visit day 28, read-out: Ctrough, arithmetic mean ± SD): 14.2 ± 12.3 ng/mL
concentration at 16 day ([3]; human, plasma, 10 mg, visit day 16, n = 1, read-out: Ctrough): 8.25 ng/mL
concentration at 28 day ([3]; human, plasma, 10 mg, visit day 28, n = 1, read-out: Ctrough): 6.41 ng/mL
concentration at 16 day ([3]; human, plasma, 15 mg, visit day 16, read-out: Ctrough, arithmetic mean ± SD): 29.4 ± 38.5 ng/mL
concentration at 28 day ([3]; human, plasma, 15 mg, visit day 28, read-out: Ctrough, arithmetic mean ± SD): 23.2 ± 16 ng/mL
concentration at 11 day ([3]; human, plasma, 25 mg, visit day 11, read-out: Ctrough, arithmetic mean ± SD): 22.2 ± 21.8 ng/mL
concentration at 16 day ([3]; human, plasma, 25 mg, visit day 16, read-out: Ctrough, arithmetic mean ± SD): 66.7 ± 80.4 ng/mL
concentration at 28 day ([3]; human, plasma, 25 mg, visit day 28, read-out: Ctrough, arithmetic mean ± SD): 40.3 ± 30.6 ng/mL
Tmax ([3]; human, plasma, all doses, read-out: Tmax (median)): 1 to 2 h

Source: patent US20240165097A1, “PHARMACEUTICAL COMPOSITION FOR THE TREATMENT OF ALZHEIMER'S DISEASE OR DEMENTIA” (Heptares Therapeutics Limited, priority 2021, published 2024)
